Here are results for 4 molecules from patent US20240287429A1, “MEDICINAL AGENT EFFECT PREDICTION SYSTEM” (Tohoku Institute of Technology, priority 2021, published 2024).

One data set relates to peripheral nerves. As to conditions: stated as known; not the applicant's own test; cited from earlier work.
In data set [1] the test system is neurites growing from nerve cells (rat DRG cells). The experiment in a line: assessment by medicinal agent effect prediction system: microscope image of neurites cultured in the microfluidic device, applied to learned model M1. It is filed as cell-based. As to conditions: image of FIG. 10 applied to learned model M1; result shown in FIG. 11. The text has this:
FIG. 7A to FIG. 7D are observation images obtained by culturing nerve cells 41 in the microfluidic devices 30 using culture solutions respectively containing different known substances and observing, with a microscope, neurites 42 located in the second culture spaces 37. It should be noted that rat DRG cells are herein used as nerve cells 41, but various cells such as mouse DRG cells, human ES cells, or human iPS cells can be used.
Then, neurites 42 growing from the nerve cells 41 and located in the second culture space 37 were observed by the microscope 50 to obtain an observation image.
Image data based on the observation image was input as input data for assessment i42t to the system 10 through the data input receiving unit 11. In the system 10, the assessment unit 15 applied the input data for assessment i42t to the learned model M1. That is, features based on the input data for assessment i42t were applied to the input layer of the learned model M1. As a result, the result of assessment shown in FIG. 11 was output from the display output unit 17.
The percentage of correct answers is further improved by increasing the number of samples of teaching data and the number of times of learning.

With `O=C1[O][Pt]2([NH][C@@H]3CCCC[C@H]3[NH]2)[O]C1=O` [Oxaliplatin], the “impairment of peripheral nerves the substance is known to cause” value (from here on “impairment”) in the data set on peripheral nerves is recorded as “neuronopathy”. Take `CC[C@]1(O)C[C@H]2CN(CCc3c([nH]c4ccccc34)[C@@](C(=O)OC)(c3cc4c(cc3OC)N(C=O)[C@H]3[C@@](O)(C(=O)OC)[C@H](OC(C)=O)[C@]5(CC)C=CCN6CC[C@]43[C@@H]65)C2)C1` [Vincristine]: in the data set with peripheral nerves, the “impairment” value is “axonopathy”. On to `CC(=O)O[C@H]1C(=O)[C@@]2(C)[C@H]([C@H](OC(=O)c3ccccc3)[C@]3(O)C[C@H](OC(=O)[C@H](O)[C@@H](NC(=O)c4ccccc4)c4ccccc4)C(C)=C1C3(C)C)[C@]1(OC(C)=O)CO[C@@H]1C[C@@H]2O` [Paclitaxel], for which, in data set [1], the “result of assessment (impaired nerve site predicted by the system)” value is “high possibility of causing axonopathy”. As to `OC[C@H]1O[C@@](CO)(O[C@H]2O[C@H](CO)[C@@H](O)[C@H](O)[C@H]2O)[C@@H](O)[C@@H]1O` [Sucrose], the “impairment” value in the data set on peripheral nerves is “not to be toxic to peripheral nerves”.
